Patent US9681661B2, “Method of controlling parasitic weeds with mixtures comprising herbicidal acetolactate synthase inhibitors and plant growth regulators” (BASF Agrochemical Products B.V., priority 2011, dated 2017)

What was measured:
Orobanche cumana (ORACE) = experiment: Field experiment: herbicidal activity against natural Orobanche cumana infestation in sunflower, postemergence treatments; format: in vivo; conditions: Imazamox 50 and/or Prohexadione-Ca 100 g a.i./ha total
From the text: Host test plants were, uniform and homogeneous with respect to age, cultivar, and row spacing and distance in the row. Plot size 2.8 m×10 m-4 rows per plot. Test area was kept weed free of conventional weeds (monocotyledon and dicotyledonous weeds) by hand hoeing. Natural infestations of parasitic weeds were present in the soil of the test areas. Postemergence treatments where performed with up to 4 application timings regarding the growth stage of the host plant. Application timings are specified with M, N, O, and P and related to the following growth stages of the host test plants according to the BBCH-scale” Lancashire, […] Boom, E. Weber and A. Witzenberger, 1991: A uniform decimal code for growth stages of crops and weeds. Ann. appl. […] Sequential application were performed with the solo active components and compared to the respective mixture. The respectively stated components A) and B) were used as commercially available formulations and, with addition of a solvent system, introduced into the spray medium used for applying the active composition. In the examples, the spray medium used was water. […] The test period extended over 1 to 4 month. During this time, the plants were tended, and their response to the individual treatments was evaluated. Evaluation was carried out using a scale from 0 to 100 to express activity (in %). 100% means no emergence of the parasitic plants, or complete destruction of at least the above-ground parts, and 0% means no damage or normal course of growth of the parasitic plants. Good herbicidal activity is given at values of at least 70, and very good herbicidal activity is given at values of at least 85. In the examples below, using the method of S. R. Colby (1967) “Calculating synergistic and antagonistic responses of herbicide combinations”, Weeds 15, p. 22ff., the value E, which is expected if the activity of the individual active compounds is only additive, was calculated. E=X+Y-(X·Y/100) • where • X=percent activity using active component A) at an application rate a; • Y=percent activity using active component B) at an application rate b; • E=expected activity (in %) by A)+B) at application rates a+b. If the value found experimentally is higher than the value E calculated according to Colby, a synergistic effect is present. The herbicidal activity of the tested compositions against Orobanche cumana (ORACE) according to the invention is compiled in table V.

Orobanche sp. (ORASS) [1] = experiment: Field experiment: delay of weed emergence and number of Orobanche plants per host plant in imazamox tolerant sunflower; format: in vivo; conditions: Imazamox 30 g/ha at BBCH 14-15 and 20 g/ha at BBCH 16-18, Prohexadione-Ca 60 g/ha at BBCH 14-15 and 40 g/ha at BBCH 16-18; for first visible emergence of orobanche (DAT): untreated 22
sunflower = experiment: Field experiment: yield of sunflower seeds under Orobanche infestation; format: in vivo, Helianthus annuus L.; conditions: Imazamox 30 g/ha at BBCH 14-15 and 20 g/ha at BBCH 16-18; Prohexadione-Ca 60 g/ha at BBCH 14-15 and 40 g/ha at BBCH 16-18; untreated 1127
Orobanche sp. (ORASS) [2] = experiment: Impact of host infestation with Orobanche, tank mixture versus single application, score 1 to 10; format: in vivo; conditions: 21 days after treatment; application at BBCH 16-18; Imazamox 15 g/ha, Prohexadione-Ca 75 g/ha; value 1 (no infestation) to 10 (high negative impact)
From the text: Seeds of sunflower (Helianthus annuus L.) where sown as host test plants using small scale field experiment equipment. Host test plants were, uniform and homogeneous with respect to age, cultivar, and row spacing and distance in the row. Plot size 2.8 m×10 m—4 rows per plot. Test area was kept weed free of conventional weeds (monocotyledon and dicotyledonous weeds) by hand hoeing. Natural infestations of parasitic weeds were present in the soil of the test areas. Sequential application were performed with the solo active components and compared to the respective mixture. The respectively stated components A) and B) were used as commercially available formulations and, with addition of a solvent system, introduced into the spray medium used for applying the active composition. In the examples, the spray medium used was water.

Orobanche cumana = conditions: reported in EP 0123001 (A1) / Fan et al., Weed Research 2007; cited from earlier work
[3] = timing M, N, O, P (BBCH growth stage), scale 0 to 100, 100 = no emergence or complete destruction
[4] = timing M, O (BBCH growth stage), scale 0 to 100
[5] = timing N, P (BBCH growth stage), scale 0 to 100

Compound | activity in % (Orobanche cumana (ORACE); [3]) [%] | activity in % (Orobanche cumana (ORACE); [4]) [%] | activity in % (Orobanche cumana (ORACE); [5]) [%] | no. of orobanche plants per host plant (Orobanche sp. (ORASS) [1]) | first visible emergence of orobanche (DAT) (Orobanche sp. (ORASS) [1]) | yield of sunflower seeds (sunflower) [kg/ha] | impact of host infestation with ORASS (Orobanche sp. (ORASS) [2]) | sunflower resistance against infection with Orobanche cumana (Orobanche cumana)
COCc1cnc(C2=NC(C)(C(C)C)C(=O)N2)c(C(=O)O)c1 (stereo not drawn) [Imazamox, imazamox] | 69 | 67 | 68 | 15 | 81 | 2055 | 4 | –
prohexadione-calcium | 2 | 5 | 8 | 55 | 63 | 961 | 6 | induces sunflower resistance
